Assay results as given in US5239083A, “Indole derivatives which inhibit steroid 5α reductase” (Kyowa Hakko Kogyo Co., Ltd., priority 1991, dated 1993).

How the values were obtained:
male dd mice = experiment: Acute Toxicity Test (oral, mice); type: in vivo; details: oral 300 mg/kg, mortality observed seven days after administration
Method: Test compounds (300 mg/kg) were orally administered to male dd mice weighing 20±1 g (each group consists of three animals). Minimum lethal dose (MLD) was determined by observing mortality seven days after the administration.

steroid 5α-reductase = experiment: Inhibition effects on steroid 5α-reductase activity (rat prostate enzyme, [4-14C]-testosterone); type: biochemical, male rats; details: pH 6.5, 37° C., 20 minutes
Method: The measurements of inhibition effects of test compounds on steroid 5α-reductase activity were performed according to the method described by Liang et al. [J. Biol. Chem., 259, 734 (1984)] as follows.
The prostates from male rats were homogenated in three tissue volumes of 20 mM sodium phosphate buffer (pH 6.5; containing 0.32M sucrose and 1 mM dithiothreitol). The homogenate was centrifuged at 140,000 X g for one hour. The precipitate was suspended in the buffer described above and the suspension was centrifuged at 140,000 X g for one hour. The precipitate was resuspended in the buffer described above and the solution (30-50 mg protein/ml) was used as enzyme in following assay.
[4-^14 C]-testosterone (1.5 nmol), NADPH (75 nmol), the enzyme (1 mg protein) and test compound in a total volume of 0.5 ml of 40 mM sodium phosphate buffer [pH 6.5, containing 1 mM dithiothreitol] was incubated at 37° C. After 20 minutes the enzyme activity was stopped by the addition of 2 ml of ethyl acetate. The mixture was then centrifuged at 1,000 g, for 5 minutes. The ethyl acetate layer was transferred to another tube and evaporated to dryness. The steroids were taken up in 50 μl of ethyl acetate and separated by thin layer chromatography (TLC) on silica gel in a developing solvent (ethyl acetate: cyclohexane=1:1). The radioactivity of testosterone and dihydrotestosterone on the TLC plate was measured by a TLC scanner.

| Compound | Acute toxicity (MLD), minimum lethal dose (male dd mice) [mg/kg] | inhibition rate (%), 10^-7 M (steroid 5α-reductase) [%] |
| --- | --- | --- |
| 4-{2-[3-[1-(1-butylpentyl)indol-5-yl]isocrotonoyl amino]phenoxy}butyric acid [Compound 20] | > 300 | 79 |
| C/C(=C\C(=O)Nc1ccccc1OCCCC(=O)O)c1ccc2c(ccn2C(c2ccccc2)c2ccccc2)c1 [Compound 2, 4-{2-[3-(1-benzhydrylindol-5-yl)isocrotonoylamino]phenoxy}butyric acid] | > 300 | 95 |
| CCCCCn1ccc2cc(/C(C)=C/C(=O)Nc3ccccc3OCCCC(=O)O)ccc21 [Compound 6, 4-{2-[3-(1-pentylindol-5-yl)isocrotonoylamino]phenoxy}butyric acid] | > 300 | 81 |
| CCCC(C)n1ccc2cc(/C(C)=C/C(=O)Nc3ccccc3OCCCC(=O)O)ccc21 (stereo not drawn) [Compound 16, 4-{2-[3-[1-(1-methylbutyl)indol-5-yl]isocrotonoylamino]phenoxy}butyric acid] | > 300 | 88 |
| CCCCC(C)n1ccc2cc(/C(C)=C/C(=O)Nc3ccccc3OCCCC(=O)O)ccc21 (stereo not drawn) [Compound 17, 4-{2-[3-[1-(1-methylpentyl)indol-5-yl]isocrotonoylamino]phenoxy}butyrate] | > 300 | – |
| CCCCC(CC)n1ccc2cc(/C(C)=C/C(=O)Nc3ccccc3OCCCC(=O)O)ccc21 (stereo not drawn) [Compound 18, 4-{2-[3-[1-(1-ethylpentyl)indol-5-yl]isocrotonoylamino]phenoxy}butyric acid] | > 300 | 90 |
| CCCC(c1ccccc1)n1ccc2cc(/C(C)=C/C(=O)Nc3ccccc3OCCCC(=O)O)ccc21 (stereo not drawn) [Compound 41, 4-{2-[3-[1-(α-propylbenzyl)indol-5-yl]isocrotonoylamino]phenoxy}butyric acid] | > 300 | 90 |
| CCCCC(c1ccccc1)n1ccc2cc(/C(C)=C/C(=O)Nc3ccccc3OCCCC(=O)O)ccc21 (stereo not drawn) [Compound 42, 4-{2-[3-[1-(α-butylbenzyl)indol-5-yl]isocrotonoylamino]phenoxy}butyric acid] | > 300 | 89 |
| CCCCCC(c1ccccc1)n1ccc2cc(/C(C)=C/C(=O)Nc3ccccc3OCCCC(=O)O)ccc21 (stereo not drawn) [Compound 43, 4-{2-[3-[1-(α-pentylbenzyl)indol-5-yl]isocrotonoylamino]phenoxy}butyric acid] | > 300 | 74 |
| C/C(=C\C(=O)Nc1ccccc1OCCCC(=O)O)c1ccc2c(ccn2C(c2ccccc2)C(C)C)c1 (stereo not drawn) [Compound 44, 4-{2-[3-[1-[α-(2-methylethyl)benzyl]indol-5-yl]isocrotonoylamino]phenoxy}butyric acid] | > 300 | 78 |
| C/C(=C\C(=O)Nc1ccccc1OCCCC(=O)O)c1ccc2c(ccn2C2CCCc3ccccc32)c1 (stereo not drawn) [Compound 45, 4-{2-[3-[1-(1,2,3,4-tetrahydro-1-naphthyl)indol-5-yl]isocrtonoylamino]phenoxy}butyric acid] | > 300 | 77 |
| C/C(=C\C(=O)Nc1ccccc1OCCCC(=O)O)c1ccc2c(ccn2C(c2ccccc2)c2ccccc2C)c1 (stereo not drawn) [Compound 52] | > 300 | 90 |
| C/C(=C\C(=O)Nc1ccccc1OCCCC(=O)O)c1ccc2c(ccn2C(c2ccccc2)c2ccc(C)cc2)c1 (stereo not drawn) [Compound 53] | > 300 | 84 |
| C/C(=C\C(=O)Nc1ccccc1OCCCC(=O)O)c1ccc2c(ccn2C(c2ccc(C)cc2)c2ccc(C)cc2)c1 [Compound 54, 4-{2-[3-[1-(4,4'-dimethylbenzhydryl)indol-5-yl]isocrotonoylamino]phenoxy}butyric acid] | > 300 | 89 |
